# Data: patent US4299830A, “1,5-Methano-1,4-benzodiazocines, intermediates therefor, and method of use and compositions thereof” (Sterling Drug Inc., priority 1980, dated 1981)
# How the values were obtained:
# [1] = Anti-acetylcholine Writhing Test; type: in vivo; settings: mice; for ED50: Mus musculus, read-out: ED50 (95% Confidence Limits); for ED50 / ED50 (95% Confidence Limits): expressed as free base
# From the text: This response has been called writhing.
# [2] = Anti-phenylquinone Writhing Test; type: in vivo; settings: Mus musculus, mice, expressed as free base, read-out: ED50 (95% Confidence Limits)
# Anti-bradykinin Test = type: in vivo; settings: rats, expressed as free base; for ED50: Rattus norvegicus, read-out: ED50 (95% Confidence Limits)
# [3] = EDTA Antinociceptive Test; type: in vivo; settings: Cavia porcellus, sc, 0.5 h; subcutaneous, guinea pig, 30 minutes; read-out: subcutaneously effective dose (reduces the response score to 6 or less)
# Procedure: This is also a confirmatory evaluation of analgesic activity. The test animal is the guinea pig. A threshold intradermal dose of ethylenediaminetetraacetic acid (EDTA) which can reproducibly elicit a cumulative response score of 12-18 discrete episodes of jumping, rearing, running, vocalization and biting or scratching at the site of injection within 40 seconds after challenge is determined for each animal. Thirty minutes after the administration of saline or test compound to 6-7 animals per dose, each animal is again challenged with its own threshold dose of EDTA. An effective drug dose is considered to be one which reduces the response score to 6 or less.
# Tail-flick Agonist Test = type: in vivo; settings: doses up to 120 mg./kg. subcutaneously, rats
# [4] = Tail-flick Antagonist Test against morphine; settings: Rattus norvegicus, read-out: AD50 (95% Confidence Limits)
# [5] = Tail-flick Antagonist Test against meperidine; settings: Rattus norvegicus, read-out: AD50 (95% Confidence Limits)
# [6] = Tail-flick Antagonist Test against phenazocine; settings: for ED50: Rattus norvegicus, read-out: AD50 (95% Confidence Limits); for antagonist response at 1 mg./kg.: 1 mg./kg. subcutaneous; for antagonist response at 10 mg./kg.: 10 mg./kg. subcutaneous
# [7] = Comparison in three of the foregoing tests with the compound lacking 9-amino; settings: relative to Gubitz compound
smiles,measurement,setting,value
"Nc1ccc2c(c1)N1CCN(CC3CC3)C(C2)C1 (racemic) [Example 1D, 4-cyclopropylmethyl-9-amino-3,4,5,6-tetrahydro-2H-1,5-methano-1,4-benzodiazocine]",ED50,[1]; po,5.9 mg/kg
same,ED50,"[1]; sc, subcutaneous",3.2 mg/kg
same,ED50 (95% Confidence Limits),[1]; oral,5.9 (3.9-8.7) Mg./Kg.
same,ED50 (95% Confidence Limits),[1]; subcutaneous,3.2 (2.0-4.8) Mg./Kg.
same,ED50,"[2]; sc, subcutaneous",1.8 mg/kg
same,ED50,[2]; oral,5.7 mg/kg
same,ED50,"Anti-bradykinin Test; sc, subcutaneous",2.6 mg/kg
same,ED50,Anti-bradykinin Test; oral,5.4 mg/kg
same,ED50 (95% Confidence Limits),Anti-bradykinin Test; subcutaneous,2.6 (1.5-4.1) Mg./Kg.
same,minimal effective dose,[3],1.25 mg/kg
same,tail-flick agonist activity,Tail-flick Agonist Test,at most inactive or questionably active
same,ED50,[4]; sc,8.6 mg/kg
same,ED50,[5]; sc,3.3 mg/kg
same,ED50,[6]; sc,1.6 mg/kg
same,AD50 (95% Confidence Limits),"[6]; subcutaneous, against phenazocine, expressed as free base",1.6 (1.0-2.6) mg./kg.
same,times more potent than the compound of Formula A (lacking 9-amino),[7],four to ten
"C=CCN1CCN2CC1Cc1ccc(N)cc12 (stereo not shown) [Example 2E, 4-allyl-9-amino-3,4,5,6-tetrahydro-2H-1,5-methano-1,4-benzodiazocine diethanesulfonate hemihydrate]",ED50,"[1]; sc, subcutaneous",30 mg/kg
same,ED50,[6]; sc,1.6 mg/kg
"CCNc1ccc2c(c1)N1CCN(CC3CC3)C(C2)C1.Cl.Cl (stereo not shown) [Example 3B, 4-cyclopropylmethyl-9-ethylamino-3,4,5,6-tetrahydro-2H-1,5-methano-1,4-benzodiazocine dihydrochloride]",ED50,"[1]; sc, subcutaneous",3.8 mg/kg
same,ED50,"Anti-bradykinin Test; sc, subcutaneous",3.4 mg/kg
same,tail-flick agonist activity,Tail-flick Agonist Test,at most inactive or questionably active
same,ED50,[6]; sc,4.4 mg/kg
"Nc1ccc2c(c1)N1CCN(CC3CC3)C(C2)C1 (stereo not shown) [Example 1K, dextro-4-cyclpropylmethyl-9-amino-3,4,5,6-tetrahydro-2H-1,5-methano-1,4-benzodiazocine]",ED50 (95% Confidence Limits),[1]; subcutaneous,1.0 (0.62-2.0) Mg./Kg.
same,ED50,[6]; sc,0.31 mg/kg
"CCS(=O)(=O)O.CCS(=O)(=O)O.Nc1ccc2c(c1)N1CCN(CC3CC3)C(C2)C1 (stereo not shown) [Example 1E, 4-cyclopropylmethyl-9-amino-3,4,5,6-tetrahydro-2H-1,5-methano-1,4-benzodiazocine diethanesulfonate]",ED50,"[1]; sc, subcutaneous",3.7 mg/kg
same,ED50,Anti-bradykinin Test; oral,4.2 mg/kg
same,tail-flick agonist activity,Tail-flick Agonist Test,at most inactive or questionably active
same,ED50,[4]; po,13 mg/kg
same,ED50,[5]; po,4.8 mg/kg
same,ED50,[6]; po,3.5 mg/kg
"c1ccc2c(c1)CC1CN2CCN1CC1CC1 (stereo not shown) [Compound of Formula A*, 4-cyclopropylmethyl-3,4,5,6-tetrahydro-2H-1,5-methano-1,4-benzodiazocine, reference compound]",ED50,[1]; po,32 mg/kg
same,ED50,"[1]; sc, subcutaneous",12 mg/kg
same,ED50,"Anti-bradykinin Test; sc, subcutaneous",21 mg/kg
same,ED50,[6]; sc,34 mg/kg
"CCCCNc1ccc2c(c1)N1CCN(CC3CC3)C(C2)C1 (stereo not shown) [Example 4B, 4-cyclopropylmethyl-9-butylamino-3,4,5,6-tetrahydro-2H-1,5-methano-1,4-benzodiazocine]",ED50,"[1]; sc, subcutaneous",1.6 mg/kg
same,ED50,"Anti-bradykinin Test; sc, subcutaneous",2.9 mg/kg
same,tail-flick agonist activity,Tail-flick Agonist Test,at most inactive or questionably active
same,antagonist response at 1 mg./kg.,[6]; against phenazocine,6%
same,antagonist response at 10 mg./kg.,[6]; against phenazocine,0%
same,antagonist response at 20 mg./kg.,"[6]; 20 mg./kg. subcutaneous, against phenazocine",34%
same,toxic effects at 20 mg./kg.,"[6]; 20 mg./kg. subcutaneous, rats",toxic effects
"Nc1ccc2c(c1)N1CCN(CC3CC3)C(C2)C1 (stereo not shown) [Example 1J, levo-4-cyclopropylmethyl-9-3,4,5,6-tetrahydro-2H-1,5-methano-1,4-benzodiazocine]",response at 75 mg./kg. (highest dose tested),[1]; 75 mg./kg. subcutaneous,67%
same,ED50 (95% Confidence Limits),[1]; subcutaneous,40 Mg./Kg.
same,antagonist response at 1 mg./kg.,[6]; against phenazocine,10%
same,antagonist response at 10 mg./kg.,[6]; against phenazocine,6%
same,antagonist response at 80 mg./kg.,"[6]; 80 mg./kg. subcutaneous, against phenazocine",25%
